Experimental data from the NIST ThermoML archive (doi:10.1021/je049633+).
Numbers after ± are expanded uncertainties.

Assay: xn = mol fraction of the nth substance listed
Details: Gas, isochoric method

[N-]=[N+]=O [nitrous oxide] + O=C=O
Details	molar volume [m3/mol]
238.1 K, 1004.5 kPa, x2 = 0.5959	0.001705 ± 3e-06
238.1 K, 1194.6 kPa, x2 = 0.6953	0.001286 ± 3e-06
243.07 K, 1032.4 kPa, x2 = 0.5959	0.001705 ± 3e-06
243.09 K, 1317 kPa, x2 = 0.6953	0.001286 ± 3e-06
248.05 K, 1059.7 kPa, x2 = 0.5959	0.001706 ± 3e-06
248.11 K, 1355.8 kPa, x2 = 0.6953	0.001286 ± 3e-06
253.04 K, 1086.8 kPa, x2 = 0.5959	0.001706 ± 3e-06
253.1 K, 1393.5 kPa, x2 = 0.6953	0.001287 ± 3e-06
258.09 K, 2081.3 kPa, x2 = 0.1499	0.000805 ± 2e-06
258.11 K, 1431.2 kPa, x2 = 0.6953	0.001287 ± 3e-06
263.02 K, 2626.7 kPa, x2 = 0.9071	0.000638 ± 1e-06
263.06 K, 2148.3 kPa, x2 = 0.1499	0.000805 ± 2e-06
263.08 K, 1140.7 kPa, x2 = 0.5959	0.001707 ± 3e-06
263.08 K, 1469 kPa, x2 = 0.6953	0.001287 ± 3e-06
263.09 K, 2245.7 kPa, x2 = 0.2607	0.000759 ± 2e-06
263.1 K, 2436.3 kPa, x2 = 0.4754	0.000668 ± 1e-06
268.02 K, 2719.9 kPa, x2 = 0.9071	0.000635 ± 1e-06
268.03 K, 2212.6 kPa, x2 = 0.1499	0.000806 ± 2e-06
268.04 K, 1168.2 kPa, x2 = 0.5959	0.001707 ± 3e-06
268.05 K, 1505.5 kPa, x2 = 0.6953	0.001287 ± 3e-06
268.08 K, 2515.8 kPa, x2 = 0.4754	0.000669 ± 1e-06
268.08 K, 2813.7 kPa, x2 = 0.3585	0.000579 ± 1e-06
268.08 K, 2907.1 kPa, x2 = 0.7478	0.000559 ± 1e-06
272.93 K, 1194.4 kPa, x2 = 0.5959	0.001708 ± 3e-06
272.93 K, 3330.4 kPa, x2 = 0.6929	0.000486 ± 1e-06
272.94 K, 1541.4 kPa, x2 = 0.6953	0.001288 ± 3e-06
272.95 K, 2909.1 kPa, x2 = 0.3585	0.00058 ± 1e-06
272.98 K, 3090.5 kPa, x2 = 0.0902	0.000512 ± 1e-06
273.04 K, 2808.9 kPa, x2 = 0.9071	0.000636 ± 1e-06
273.05 K, 2384.1 kPa, x2 = 0.2607	0.000759 ± 2e-06
273.06 K, 3007.9 kPa, x2 = 0.7478	0.000559 ± 1e-06
273.07 K, 2593.6 kPa, x2 = 0.4754	0.000669 ± 1e-06
273.12 K, 2276.8 kPa, x2 = 0.1499	0.000806 ± 2e-06
277.82 K, 3196.6 kPa, x2 = 0.0902	0.000513 ± 1e-06
277.86 K, 3791 kPa, x2 = 0.6099	0.000401 ± 1e-06
277.87 K, 3104 kPa, x2 = 0.7478	0.000559 ± 1e-06
277.94 K, 3453.5 kPa, x2 = 0.6929	0.000486 ± 1e-06
282.66 K, 3300.1 kPa, x2 = 0.0902	0.000513 ± 1e-06
282.82 K, 2743.7 kPa, x2 = 0.4754	0.000669 ± 1e-06
282.82 K, 3939.5 kPa, x2 = 0.6099	0.000401 ± 1e-06
282.83 K, 1245.4 kPa, x2 = 0.5959	0.001708 ± 3e-06
282.83 K, 1612.9 kPa, x2 = 0.6953	0.001288 ± 3e-06
282.83 K, 4250.2 kPa, x2 = 0.8378	0.00036 ± 1e-06
282.84 K, 3094.9 kPa, x2 = 0.3585	0.00058 ± 1e-06
282.9 K, 2980 kPa, x2 = 0.9071	0.000636 ± 1e-06
283.01 K, 2401.3 kPa, x2 = 0.1499	0.000806 ± 2e-06
283.01 K, 2518.2 kPa, x2 = 0.2607	0.000759 ± 2e-06
283.01 K, 3203.9 kPa, x2 = 0.7478	0.00056 ± 1e-06
283.01 K, 3574.6 kPa, x2 = 0.6929	0.000486 ± 1e-06
292.79 K, 3511.2 kPa, x2 = 0.0902	0.000513 ± 1e-06
292.89 K, 4229.6 kPa, x2 = 0.6099	0.000401 ± 1e-06
292.97 K, 1685.2 kPa, x2 = 0.6953	0.001289 ± 3e-06
292.97 K, 2524.4 kPa, x2 = 0.1499	0.000806 ± 2e-06
292.98 K, 1297.8 kPa, x2 = 0.5959	0.001709 ± 3e-06
292.98 K, 3279.6 kPa, x2 = 0.3585	0.00058 ± 1e-06
292.99 K, 3397 kPa, x2 = 0.7478	0.00056 ± 1e-06
292.99 K, 4597 kPa, x2 = 0.8378	0.00036 ± 1e-06
293.06 K, 2897.6 kPa, x2 = 0.4754	0.000669 ± 1e-06
293.06 K, 3153.2 kPa, x2 = 0.9071	0.000636 ± 1e-06
293.06 K, 3809.7 kPa, x2 = 0.6929	0.000486 ± 1e-06
293.11 K, 2651.8 kPa, x2 = 0.2607	0.00076 ± 2e-06
297.92 K, 4370.8 kPa, x2 = 0.6099	0.000401 ± 1e-06
298.04 K, 1323.7 kPa, x2 = 0.5959	0.001709 ± 3e-06
298.04 K, 2970.8 kPa, x2 = 0.4754	0.000669 ± 1e-06
298.04 K, 3235.8 kPa, x2 = 0.9071	0.000636 ± 1e-06
298.04 K, 3923.4 kPa, x2 = 0.6929	0.000486 ± 1e-06
298.05 K, 3617.5 kPa, x2 = 0.0902	0.000513 ± 1e-06
298.06 K, 3490.8 kPa, x2 = 0.7478	0.00056 ± 1e-06
299.02 K, 4795.1 kPa, x2 = 0.8378	0.00036 ± 1e-06
302.04 K, 2647.7 kPa, x2 = 0.1499	0.000807 ± 2e-06
303.02 K, 3458.7 kPa, x2 = 0.3585	0.00058 ± 1e-06
303.13 K, 2781.5 kPa, x2 = 0.2607	0.00076 ± 2e-06
307.87 K, 4646.1 kPa, x2 = 0.6099	0.000401 ± 1e-06
307.97 K, 3546.3 kPa, x2 = 0.3585	0.00058 ± 1e-06
308 K, 1375.9 kPa, x2 = 0.5959	0.00171 ± 3e-06
308 K, 1790.6 kPa, x2 = 0.6953	0.00129 ± 3e-06
308 K, 4148.1 kPa, x2 = 0.6929	0.000486 ± 1e-06
308.01 K, 3399.4 kPa, x2 = 0.9071	0.000637 ± 1e-06
308.02 K, 3818.3 kPa, x2 = 0.0902	0.000513 ± 1e-06
308.03 K, 3676.1 kPa, x2 = 0.7478	0.00056 ± 1e-06
308.07 K, 2845 kPa, x2 = 0.2607	0.00076 ± 2e-06
308.09 K, 5087.6 kPa, x2 = 0.8378	0.00036 ± 1e-06
308.13 K, 3117.6 kPa, x2 = 0.4754	0.00067 ± 1e-06
312.22 K, 2766.9 kPa, x2 = 0.1499	0.000807 ± 2e-06
317.84 K, 4915.4 kPa, x2 = 0.6099	0.000401 ± 1e-06
318.01 K, 2971.6 kPa, x2 = 0.2607	0.000761 ± 2e-06
318.02 K, 5401.8 kPa, x2 = 0.8378	0.000361 ± 1e-06
318.04 K, 3722.1 kPa, x2 = 0.3585	0.000581 ± 1e-06
318.05 K, 4013.5 kPa, x2 = 0.0902	0.000513 ± 1e-06
318.11 K, 1427.6 kPa, x2 = 0.5959	0.001711 ± 3e-06
318.11 K, 3261.7 kPa, x2 = 0.4754	0.00067 ± 1e-06
318.12 K, 1861.3 kPa, x2 = 0.6953	0.00129 ± 3e-06
318.12 K, 3563 kPa, x2 = 0.9071	0.000637 ± 1e-06
318.12 K, 4371.8 kPa, x2 = 0.6929	0.000486 ± 1e-06
318.13 K, 3860.5 kPa, x2 = 0.7478	0.00056 ± 1e-06
322.91 K, 5554.6 kPa, x2 = 0.8378	0.000361 ± 1e-06
323.11 K, 2885.7 kPa, x2 = 0.1499	0.000807 ± 2e-06
323.12 K, 5055.4 kPa, x2 = 0.6099	0.000401 ± 1e-06
327.94 K, 3893.1 kPa, x2 = 0.3585	0.000581 ± 1e-06
327.98 K, 3097.5 kPa, x2 = 0.2607	0.000761 ± 2e-06
328 K, 5712 kPa, x2 = 0.8378	0.000361 ± 1e-06
328.09 K, 1478.4 kPa, x2 = 0.5959	0.001712 ± 3e-06
328.09 K, 3404 kPa, x2 = 0.4754	0.00067 ± 1e-06
328.1 K, 1930.7 kPa, x2 = 0.6953	0.001291 ± 3e-06
328.1 K, 3722.5 kPa, x2 = 0.9071	0.000637 ± 1e-06
328.1 K, 4040.6 kPa, x2 = 0.7478	0.000561 ± 1e-06
328.1 K, 4589.4 kPa, x2 = 0.6929	0.000487 ± 1e-06
328.11 K, 4212.5 kPa, x2 = 0.0902	0.000514 ± 1e-06
328.11 K, 5188.2 kPa, x2 = 0.6099	0.000402 ± 1e-06
333.09 K, 3003.3 kPa, x2 = 0.1499	0.000808 ± 2e-06
333.1 K, 5868.1 kPa, x2 = 0.8378	0.000361 ± 1e-06
338.03 K, 4402.1 kPa, x2 = 0.0902	0.000514 ± 1e-06
338.07 K, 1529 kPa, x2 = 0.5959	0.001712 ± 3e-06
338.07 K, 4218.4 kPa, x2 = 0.7478	0.000561 ± 1e-06
338.07 K, 4804.3 kPa, x2 = 0.6929	0.000487 ± 1e-06
338.08 K, 1999.6 kPa, x2 = 0.6953	0.001291 ± 3e-06
338.08 K, 3880.7 kPa, x2 = 0.9071	0.000637 ± 1e-06
338.08 K, 4065.8 kPa, x2 = 0.3585	0.000581 ± 1e-06
338.09 K, 3223.8 kPa, x2 = 0.2607	0.000761 ± 2e-06
338.09 K, 5449.4 kPa, x2 = 0.6099	0.000402 ± 1e-06
338.11 K, 3545.6 kPa, x2 = 0.4754	0.000671 ± 1e-06
343.08 K, 3119.8 kPa, x2 = 0.1499	0.000808 ± 2e-06
343.08 K, 5578.9 kPa, x2 = 0.6099	0.000402 ± 1e-06
348.02 K, 4592.8 kPa, x2 = 0.0902	0.000514 ± 1e-06
348.05 K, 3346.9 kPa, x2 = 0.2607	0.000762 ± 2e-06
348.05 K, 3684.7 kPa, x2 = 0.4754	0.000671 ± 1e-06
348.06 K, 1579.5 kPa, x2 = 0.5959	0.001713 ± 3e-06
348.06 K, 2068.1 kPa, x2 = 0.6953	0.001292 ± 3e-06
348.06 K, 4036.9 kPa, x2 = 0.9071	0.000638 ± 1e-06
348.06 K, 4394.9 kPa, x2 = 0.7478	0.000561 ± 1e-06
348.06 K, 5017.1 kPa, x2 = 0.6929	0.000487 ± 1e-06
348.07 K, 4234.7 kPa, x2 = 0.3585	0.000582 ± 1e-06
353.04 K, 3235.1 kPa, x2 = 0.1499	0.000809 ± 2e-06
357.91 K, 4567 kPa, x2 = 0.7478	0.000561 ± 1e-06
357.95 K, 2135.6 kPa, x2 = 0.6953	0.001293 ± 3e-06
357.99 K, 1629.5 kPa, x2 = 0.5959	0.001714 ± 4e-06
357.99 K, 5226.8 kPa, x2 = 0.6929	0.000487 ± 1e-06
358.02 K, 3469.7 kPa, x2 = 0.2607	0.000762 ± 2e-06
358.02 K, 3823.2 kPa, x2 = 0.4754	0.000671 ± 1e-06
358.03 K, 4191.9 kPa, x2 = 0.9071	0.000638 ± 1e-06
358.04 K, 3292.6 kPa, x2 = 0.1499	0.000809 ± 2e-06
358.04 K, 4401.6 kPa, x2 = 0.3585	0.000582 ± 1e-06
